We go through 13 compounds from patent US6833372B2, “Non-peptide GnRH agents, Pharmaceutical compositions, and methods for their use” (Pfizer, Inc., priority 2002, dated 2004).

One data set deals with T1, human GnRH receptors (Homo sapiens, UniProt P30968).
T1 construct: expressed in transfected cells; host or cells: HEK 293 cells, stably transfected; membranes
T1 sequence (P30968 1-328): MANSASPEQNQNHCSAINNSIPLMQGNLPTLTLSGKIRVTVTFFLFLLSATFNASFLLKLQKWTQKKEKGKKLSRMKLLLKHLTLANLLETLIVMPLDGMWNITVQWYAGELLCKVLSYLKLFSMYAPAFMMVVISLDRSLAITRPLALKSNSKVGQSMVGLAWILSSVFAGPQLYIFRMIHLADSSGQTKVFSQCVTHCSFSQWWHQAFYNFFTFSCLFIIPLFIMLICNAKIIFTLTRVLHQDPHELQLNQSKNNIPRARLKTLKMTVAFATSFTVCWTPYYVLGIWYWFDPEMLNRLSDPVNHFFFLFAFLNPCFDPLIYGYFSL
Description: Radioligand binding: inhibition of 125I-GnRH-A binding to human GnRH receptor membranes. The settings on record: HEK 293 cell membranes. The essentials: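 Membranes from rat pituitaries, or HEK 293 cells stably expressing mouse or human receptor, incubated 1 hour at room temperature with ~0.04-0.06 nM radioligand (HEPES pH 7.4, EDTA, MgCl2, BSA) and competitor at 0.1-10,000 nM. Bound ligand collected by GF/C filtration and counted; Ki derived from IC50 by Cheng-Prusoff.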

The next data set deals with T2, rat GnRH receptor (Rattus norvegicus, UniProt P30969).
T2 construct: or rat pituitaries (Pel Freez Biologicals, Rogers, Ark.) were homogenized; tissue Pel Freez Biologicals; host or cells: rat pituitaries (membrane preparation)
T2 sequence (P30969 1-327): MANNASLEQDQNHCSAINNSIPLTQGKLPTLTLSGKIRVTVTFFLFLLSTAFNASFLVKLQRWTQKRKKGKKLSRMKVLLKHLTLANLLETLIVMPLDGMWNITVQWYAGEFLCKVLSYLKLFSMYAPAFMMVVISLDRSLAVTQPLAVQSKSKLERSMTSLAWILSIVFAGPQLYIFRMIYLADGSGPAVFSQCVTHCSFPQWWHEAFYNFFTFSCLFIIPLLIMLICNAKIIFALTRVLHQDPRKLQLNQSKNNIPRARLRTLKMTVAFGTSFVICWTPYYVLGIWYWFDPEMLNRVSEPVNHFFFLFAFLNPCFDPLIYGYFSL
Description: Radioligand binding: inhibition of 125I-GnRH-A binding to rat GnRH receptor (rat pituitary membranes). The settings on record: read-out: Ki (nM), Inhibition Binding of 125I-GnRH-A to GnRH Receptors. The method, then: HEK 293 cells containing mouse or human receptors, or rat pituitaries (Pel Freez Biologicals, Rogers, Ark.) were homogenized in buffer A containing: 50 mM Tris (pH 7.4), 0.32 M sucrose, 2 mM EGTA, 1 mM PMSF, 5 μg/ml aprotinen, 5 μg/ml Pepstatin A, and 1 μg/ml leupeptin. Homogenized cells were centrifuged at 4° C. at 20,000×g for 25 minutes, re-suspended in buffer A and re-centrifuged at 4° C. at 20,000×g for an additional 25 minutes. Total membrane protein was determined with a BCA kit (Pierce, Rockford, Ill.). Membranes were stored at −70° C. at a final membrane protein concentration of approximately 5 mg/ml.
The radioiodinated agonist analog of GnRH, [des-Gly^10,D-Ala^6]GnRH ethylamide (^125I-GnRH-A), was used as the radioligand. […] The reaction mixture was vortexed and incubated for 1 minute at room temperature. After one minute, the mixture was vortexed and allowed to incubate for an additional minute. 2 ml of 0.5 M acetic acid/1% BSA was added to the reaction tube and the mixture was added to a C18 Sep-Pak cartridge. The cartridge was washed with subsequent washes of 5 ml H2O and 5 ml 0.5 M acetic acid and then eluted with 5×1 ml of 60% CH3CN/40% 0.5 M acetic acid. The eluate was diluted with 3× volume of HPLC buffer A (0.1% TFA in H2O) and loaded onto a C18 column. The iodinated product was eluted over 20-25 min with a gradient of 25-100% CH3CN containing 0.1% TFA. The radioactive fractions (750 μl/fraction) were collected into clean polypropylene tubes containing 100 μl of 10% BSA. Fractions were assessed for biological activity by radioligand binding. Specific activity of the radioligand was approximately 2200 Ci/mmol.
Membranes were diluted to 0.01-0.5 mg/ml (depending upon the species of receptor) with assay buffer containing 50 mM HEPES (pH 7.4), 1 mM EDTA, 2.5 mM MgCl2, and 0.1% BSA. Membranes (diluted to utilize similar receptor numbers between assays) were incubated with approximately 0.04-0.06 nM ^125I-GnRH-A in the presence or absence of competing agents (0.1-10,000 nM) in a total volume of 200 μl in 96-well polypropylene plates for 1 hour at room temperature. Assays were stopped by rapid filtration onto 96-well GF/C filters soaked in 0.1% polyethylenimine (PEI) utilizing a Packard 96-well cell harvester. Filters were washed three times with ice-cold PBS (50 mM NaPO4, 0.9% NaCl, 2 mM MgCl2, and 0.02% NaN3, pH 7.4). 35 μl of scintillation cocktail was added to each filter well and filters were counted on a Packard Topcount. Control dose-response curves were generated to GnRH (0.1 nM-100 nM) in each competition binding experiment. Ki values were calculated from IC50 values according to Cheng et al., Biochemical Pharmacol. 22: 3099-3108, 1973. [formula]

A short description of data set [1]: In vitro metabolism: disappearance of parent compound in human liver microsomes. Particulars: 5 uM compound, 0.5 mg/ml protein, 2 mM NADPH, 30 minutes 37° C. The format is in vitro ADME. The method, then: (§1) Human, rat, dog, and monkey liver microsomes were isolated by differential centrifugation. Specimens of human liver were obtained from the International Institute for the Advancement of Medicine (Scranton, Pa.). The disappearance of the parent compound was studied in a mixture containing 5 uM compound, 0.5 mg/ml microsomal protein, and 2 mM NADPH in 50 mM K phosphate buffer, pH 7.4. Samples were incubated for 30 minutes at 37° C. The reaction was terminated by the addition of acetonitrile and compounds analyzed by LC-MS as described above.
For orientation: Liver microsomes are vesicles of endoplasmic reticulum, rich in cytochrome P450 enzymes.

Data set [2] can be described thus: In vitro metabolism: disappearance of parent compound in rat liver microsomes (male, female). The format is in vitro ADME. Particulars: 5 uM compound, 30 minutes 37° C.; for Fem. Rat (FR) % rem. 30′: female rat liver microsomes. The protocol: as §1
A short description of data set [3]: In vitro metabolism: disappearance of parent compound in dog liver microsomes. In kind it is in vitro ADME. Particulars: 5 uM compound, 30 minutes 37° C. The method, then: as §1
A short description of data set [4]: In vitro metabolism: disappearance of parent compound in monkey liver microsomes. In kind it is in vitro ADME. The settings on record: 5 uM compound, 30 minutes 37° C. The protocol: as §1

The Ki is the dissociation constant of the complex between target and ligand, obtained from inhibition or displacement.

“And” between values parts separate entries of the source, which are not always exact repeats. Equal entries are not always repeated.

For `COc1nc(NCCN2CCOCC2)nc(OC)c1NC(=O)c1ccc(Cc2cc3c(cc2C)C(C)(C)OC3(C)C)o1` [Example D4, N-{4,6-dimethoxy-2-[(2-morpholin-4-ylethyl)amino]pyrimidin-5-yl}-5-[(1,1,3,3,6-pentamethyl-1,3-dihydro-2-benzofuran-5-yl)methyl]-2-furamide], the Ki on human GnRH receptors was 6 nM; on rat GnRH receptor it was 4.1 nM. In addition, the “Human % rem. 30′” value in data set [1] is 83%. Also, the “Fem. Rat (FR) % rem. 30′” value in data set [2] came to 76%. Further, the “Male Rat (MR) % rem. 30′” value in data set [2] (male rat liver microsomes) was determined as 38%. For the same compound, the “Dog % rem. 30′” value in data set [3] stood at 34%. In addition, the Monkey % rem. in data set [4] was 2%.

Consider `COc1nc(NCCN(C)C(=O)c2ccc(Cc3cc4c(cc3C)C(C)(C)OC4(C)C)o2)nc(OC)c1NC(=O)c1ccc(Cc2cc3c(cc2C)C(C)(C)OC3(C)C)o1` [Example D2], for which the Ki was 14 nM on human GnRH receptors and 11 nM at rat GnRH receptor. The “Human % rem. 30′” value in data set [1] was 76% and 83%. In addition, the “Fem. Rat (FR) % rem. 30′” value in data set [2] is 84% and 82%.

For `COc1nc(NCCCN(C)C)nc(OC)c1NC(=O)c1ccc(Cc2c(C)cc3c(c2C)C(C)(C)CCO3)o1` [Example I3, N-(2-{[3-(Dimethylamino)propyl]amino}-4,6-dimethoxypyrimidin-5-yl)-5-[(4,4,5,7-tetramethyl-3,4-dihydro-2H-chromen-6-yl)methyl]-2-furamide], the Ki at human GnRH receptors is 36 nM; at rat GnRH receptor, 22 nM.

Consider `CNCCCNc1nc(OC)c(NC(=O)c2ccc(Cc3cc4c(cc3C)C(C)(C)OC4(C)C)o2)c(OC)n1` [Example D60, N-(4,6-Dimethoxy-2-{[3-(methylamino)propyl]amino}-5-pyrimidinyl)-5-[(1,1,3,3,6-pentamethyl-1,3-dihydro-2-benzofuran-5-yl)methyl]-2-furamide], for which the Ki turned out to be 1 nM on human GnRH receptors and 0.32 nM at rat GnRH receptor.

`COc1nc(NCc2ccc(N)cc2)nc(OC)c1NC(=O)c1ccc(Cc2cc3c(cc2C)C(C)(C)OC3(C)C)o1` [Example D44, N-{2-[(4-Aminobenzyl)amino]-4,6-dimethoxypyrimidin-5-yl}-5-[(1,1,3,3,6-pentamethyl-1,3-dihydro-2-benzofuran-5-yl)methyl]-2-furamide]: the Ki at human GnRH receptors was 8.6 nM; on rat GnRH receptor, 3.4 nM.

As to `COc1nc(N(C)CCCCCCO)nc(OC)c1NC(=O)c1ccc(Cc2cc3c(cc2C)C(C)(C)OC3(C)C)o1` [Example D41, N-{2-[(6-Hydroxyhexyl)(methyl)amino]-4,6-dimethoxypyrimidin-5-yl}-5-[(1,1,3,3,6-pentamethyl-1,3-dihydro-2-benzofuran-5-yl)methyl]-2-furamide], the Ki on human GnRH receptors was 12 nM; at rat GnRH receptor, 15 nM.

On to `CCCCC(CC)COCCCNc1nc(OC)c(NC(=O)c2ccc(Cc3cc4c(cc3C)C(C)(C)OC4(C)C)o2)c(OC)n1` (stereo not drawn) [Example D39, N-[2-({3-[(2-Ethylhexyl)oxy]propyl}amino)-4,6-dimethoxypyrimidin-5-yl]-5-[(1,1,3,3,6-pentamethyl-1,3-dihydro-2-benzofuran-5-yl)methyl]-2-furamide], for which the Ki on human GnRH receptors amounted to 19 nM; at rat GnRH receptor it was 5.4 nM.

Consider `COc1nc(NCC(c2ccc[nH]2)C(F)(F)F)nc(OC)c1NC(=O)c1ccc(Cc2cc3c(cc2C)C(C)(C)OC3(C)C)o1` (stereo not drawn) [Example D57, N-(4,6-Dimethoxy-2-{[3,3,3-trifluoro-2-(1H-pyrrol-2-yl)propyl]amino}pyrimidin-5-yl)-5-[(1,1,3,3,6-pentamethyl-1,3-dihydro-2-benzofuran-5-yl)methyl]-2-furamide], for which the Ki came to 36 nM on human GnRH receptors and 4.4 nM at rat GnRH receptor.

Take `COc1nc(Oc2ccccc2)nc(OC)c1NC(=O)c1ccc(Cc2cc3c(cc2C)C(C)(C)OC3(C)C)o1` [Example A2, 5-(1,1,3,3,6-Pentamethyl-1,3-dihydro-isobenzofuran-5-ylmethyl)-furan-2-carboxylic acid (4,6-dimethoxy-2-phenoxy-pyrimidin-5-yl)-amide]: the Ki on human GnRH receptors was found to be 7.6 nM; on rat GnRH receptor, 9 nM.

As for `CNCCNc1nc(OC)c(NC(=O)c2ccc(Cc3cc4c(cc3C)C(C)(C)OC4(C)C)o2)c(OC)n1` [Example D20, N-(4,6-Dimethoxy-2-{[2-(methylamino)ethyl]amino}-pyrimidin-5-yl}-5-[(1,1,3,3,6-pentamethyl-1,3-dihydro-2-benzofuran-5-yl)methyl]-2-furamide], the Ki was determined as 1 nM on human GnRH receptors and 0.5 nM at rat GnRH receptor.

For the compound `COc1nc(NC2CCN(C)CC2)nc(OC)c1NC(=O)c1ccc(Cc2cc3c(cc2C)C(C)(C)OC3(C)C)o1` [Example D13, N-{4,6-Dimethoxy-2-[(1-methylpiperidin-4-yl)amino]pyrimidin-5-yl}-5-[(1,1,3,3,6-pentamethyl-1,3-dihydro-2-benzofuran-5-yl)methyl]-2-furamide], the Ki at human GnRH receptors came out at 38 nM; on rat GnRH receptor, 16 nM.

As to `COc1nc(N2CCC3CNC(=O)C3C2)nc(OC)c1NC(=O)c1ccc(Cc2cc3c(cc2C)C(C)(C)OC3(C)C)o1` (stereo not drawn) [Example D40, N-[4,6-Dimethoxy-2-(3-oxooctahydro-5H-pyrrolo[3,4-c]pyridin-5-yl)pyrimidin-5-yl]-5-[(1,1,3,3,6-pentamethyl-1,3-dihydro-2-benzofuran-5-yl)methyl]-2-furamide], the Ki came to 27 nM on human GnRH receptors and 30 nM on rat GnRH receptor.

With `COc1nc(NCCCN2CCN(C)CC2)nc(OC)c1NC(=O)c1ccc(Cc2c(C)cc(C)c3c2OCC3(C)C)o1` [Example H5], the Ki on human GnRH receptors is 11 nM; at rat GnRH receptor, 8.2 nM.
